Measurements as given in patent US6180621A, “Method and treatment using 1-methylcarbapenem derivatives as an anti-helicobacter pylori agent” (Sankyo Company, Limited, priority 1996, dated 2001).
In brackets after ≈: the same amount, converted by molar mass. Read-outs that look alike come from different tables or passages of the source.

Tests used:
[1] = test system: helicobacter pylori; conditions: background, reported; cited from earlier work
[2] = test system: helicobacter pylori; test: In vitro activity against helicobacter pylori (MIC), agar plate; format: cell-based; conditions: for MIC: Helicobacter pylori, 72 h, read-out: minimum inhibitory concentration (MIC)
Procedure: In vitro activity against helicobacter pylon (MIC; μg/ml)
Helicobacter pylori (H. pylori) from storage was smeared on a 7%-equine-defibrinated-blood-added brain heart infusion agar (BHIA) plate and cultured at 37° C. for 72 hours under microaerophilic and wet conditions. The colonies thus grown were picked and suspended in physiological saline to prepare a culture solution of 10^8 CFU/ml (viable microbe cell number per ml). The resulting culture solution was diluted to 10 to 50-fold with physiological saline, and one spot (about 10 μl) of the solution was inoculated on each of medicament-containing and medicament-free BHIA plates. Each of the plates was cultured at 37° C. for 72 hours under microaerophilic and wet conditions and the minimum inhibitory concentration (MIC: μg/ml) at which the growth of the colonies was inhibited was measured.

[3] = test system: helicobacter pylori 9470 strain; test: Therapeutic effects for nude mouse infected with helicobacter pylori (viable microbe cell number, CFU/stomach); format: in vivo; conditions: oral, once a day for 4 days, nude mice
Procedure: Therapeutic effects for nude mouse infected with helicobacter pylon Bacteria (helicobacter pylori 9470 strain) used for the test, which were cultured for 48 hours in a 2%-fetal-calf-serum-added brucella broth, were centrifuged. After removal of the supernatant, the residue was re-suspended in a 1/10 amount of a brucella broth. The resulting suspended solution was orally administered to each of three to five nude mice in an amount of […] per mouse. 10 days after the infection, administration of a medicament was started. A 0.5% tragacanth suspension of a medicament was orally administered for 4 days through an oral catheter at a dose of 0.3 ml/mouse, once a day. On the day after the final administration, the stomach was extirpated, homogenized and then diluted. […] The significant difference of Medicament B(2), Medicament C(1) or C(2) is p<0.01 (vs the control group).

[4] = H. pylori strain 9470, 37° C., 72 hours, microaerophilic, BHIA plate
[5] = H. pylori strain 9472, 37° C., 72 hours, microaerophilic, BHIA plate
[6] = H. pylori strain 9474, 37° C., 72 hours, microaerophilic, BHIA plate
[7] = H. pylori strain 9824, 37° C., 72 hours, microaerophilic, BHIA plate
[8] = H. pylori strain 9828, 37° C., 72 hours, microaerophilic, BHIA plate

MIC [2, 4]	MIC [2, 5]	MIC [2, 7]	MIC [2, 8]	SMILES	effect against helicobacter pylori [1]	other results
				CN(C)C1C(=O)C(C(N)=O)=C(O)C2(O)C(=O)C3=C(O)c4c(O)cccc4C(C)(O)C3CC12 (stereo not shown) [tetracycline]	effective against helicobacter pylori	
6 ng/mL (≈ 0.00802 µM)	6 ng/mL (≈ 0.00802 µM)	1500 ng/mL (≈ 2.01 µM)	6250 ng/mL (≈ 8.36 µM)	CC[C@H]1OC(=O)[C@H](C)[C@@H](O[C@H]2C[C@@](C)(OC)[C@@H](O)[C@H](C)O2)[C@H](C)[C@@H](O[C@@H]2O[C@H](C)C[C@H](N(C)C)[C@H]2O)[C@](C)(OC)C[C@@H](C)C(=O)[C@H](C)[C@@H](O)[C@]1(C)O [CAM, clarithromycin]	effective against helicobacter pylori	MIC [2, 6]: 25 ng/mL (≈ 0.0334 µM); significant difference (p) vs the control group, viable microbe cell number (CFU/stomach) ([3]; 10 mg/kg): < 0.01
				C[C@@H](O)[C@H]1C(=O)N2C(C(=O)[O-])=C(S[C@H]3CNC(=O)C3)[C@H](C)[C@H]12.[Na+] [Compound 1, sodium (1R,5S,6S)-2-[(4R)-2-oxo-4pyrrolidinylthio]-6-[(1R)-1-hydroxyethyl]-1-methyl-1-carbapen-2-em-3-carboxylate]		minimum inhibitory concentration (MIC) [2, 5]: ≤ 6 ng/mL; minimum inhibitory concentration (MIC) [2, 6]: ≤ 6 ng/mL; minimum inhibitory concentration (MIC) [2, 7]: ≤ 6 ng/mL; minimum inhibitory concentration (MIC) [2, 8]: ≤ 6 ng/mL; MIC [2]: ≤ 6 ng/mL
12 ng/mL (≈ 0.0328 µM)	25 ng/mL (≈ 0.0684 µM)	390 ng/mL (≈ 1.07 µM)	200 ng/mL (≈ 0.547 µM)	CC1(C)S[C@@H]2[C@H](NC(=O)[C@H](N)c3ccc(O)cc3)C(=O)N2[C@H]1C(=O)O [AMPC, amoxicillin]	effective against helicobacter pylori	MIC [2, 6]: 50 ng/mL (≈ 0.137 µM)
≤ 0.6 ng/mL	≤ 6 ng/mL	≤ 6 ng/mL	≤ 6 ng/mL	C[C@@H](O)[C@H]1C(=O)N2C(C(=O)O)=C(S[C@@H]3CC(=O)N(C)C3)[C@H](C)[C@H]12 [Compound 2]		
				C[C@@H](O)[C@H]1C(=O)N2C(C(=O)[O-])=C(S[C@H]3CC(=O)N(C)C3)[C@H](C)[C@H]12.[Na+] [Compound 3, sodium (1R,5S,6S)-2-[(4S)-1-methyl-2-oxo-4-pyrrolidinylthio]-6-[(1R)-1-hydroxyethyl]-1-methyl-1-carbapen-2-em-3-carboxylate]		minimum inhibitory concentration (MIC) [2, 5]: ≤ 6 ng/mL; minimum inhibitory concentration (MIC) [2, 7]: ≤ 6 ng/mL; minimum inhibitory concentration (MIC) [2, 8]: ≤ 6 ng/mL; MIC [2]: ≤ 6 ng/mL
				Cc1ncc([N+](=O)[O-])n1CCO [metronidazole]	effective against helicobacter pylori	
				C[C@@H](O)[C@H]1C(=O)N2C(C(=O)OCOC(=O)C(C)(C)C)=C(S[C@H]3CNC(=O)C3)[C@H](C)[C@H]12 [Compound 4, pivaloyloxymethyl (1R,5S,6S)-2-[(4R)-2-oxo-4-pyrrolidinylthio]-6-[(1R)-1-hydroxyethyl]-1-methyl-1-carbapen-2-em-3-carboxylate]		significant difference (p) vs the control group, viable microbe cell number (CFU/stomach) ([3]; 1 mg/kg): < 0.01; significant difference (p) vs the control group, viable microbe cell number (CFU/stomach) ([3]; 10 mg/kg): < 0.01
				O=C([O-])CC(O)(CC(=O)[O-])C(=O)[O-].[Bi+3] [bismuth citrate]	effective against helicobacter pylori	
